Data: ChEMBL document CHEMBL5233226 (Eur J Med Chem, 2020)
pIC50, pKi: −log10 of the molar value. Values belong to the compound of their own block, whether it stands above or below them. *1 amine or outer side, *2 acyl side, *3 side chain or, on linkers, in order; H or OH if unused. Where a SMILES comes first, the peptide text is derived from it. Bridges are numbered along the chain shown (N, C = ends). TBMB = c1c(C[*:1])cc(C[*:3])cc1C[*:2]

Assays:
[1] = target: T1, Plasma kallikrein (Homo sapiens, UniProt P03952); assay: Inhibition of human plasma kallikrein using H-D-Pro-Phe-Arg-p-nitroaniline as substrate assessed as inhibition constant
[2] = target: T1, Plasma kallikrein; assay: Inhibition of human plasma kallikrein using H-DPro-Phe-Arg-AFC as substrate
[3] = target: T1, Plasma kallikrein; assay: Inhibition of human plasma kallikrein usingPro-Phe-Arg-AMC as substrate incubated for 5 mins; assay type: single protein
[4] = target: T2, Plasminogen (Homo sapiens, UniProt P00747); assay: Inhibition of plasmin (unknown origin)
[5] = target: T1, Plasma kallikrein; assay: Inhibition of plasma kallikrein (unknown origin)
[6] = target: T1, Plasma kallikrein; assay: Inhibition of human plasma kallikrein incubated for 1 hrs
[7] = target: T3, Kallikrein-1 (Homo sapiens, UniProt P06870); assay: Inhibition of human KLK1 using H-DVal-Leu-Arg-AFC as substrate
[8] = target: T3, Kallikrein-1; assay: Inhibition of KLK1 (unknown origin)
[9] = target: T4, Coagulation factor XI (Homo sapiens, UniProt P03951); assay: Inhibition of fXIa (unknown origin)
[10] = target: T4, Coagulation factor XI; assay: Inhibition of human fXIa using Z-Gly-Pro-Arg-AFC as substrate
[11] = target: T5, Prothrombin (Homo sapiens, UniProt P00734); assay: Inhibition of human thrombin
[12] = target: T6, Trypsin (Homo sapiens, UniProt P07477+P07478+P35030); assay: Inhibition of human trypsin; assay type: protein assay
[13] = target: T2, Plasminogen; assay: Inhibition of human plasmin
[14] = target: T7, Coagulation factor XII (Homo sapiens, UniProt P00748); assay: Inhibition of human fXIIa using H-DPro-Phe-Arg-AFC as substrate
T7 sequence (P00748 whole entry): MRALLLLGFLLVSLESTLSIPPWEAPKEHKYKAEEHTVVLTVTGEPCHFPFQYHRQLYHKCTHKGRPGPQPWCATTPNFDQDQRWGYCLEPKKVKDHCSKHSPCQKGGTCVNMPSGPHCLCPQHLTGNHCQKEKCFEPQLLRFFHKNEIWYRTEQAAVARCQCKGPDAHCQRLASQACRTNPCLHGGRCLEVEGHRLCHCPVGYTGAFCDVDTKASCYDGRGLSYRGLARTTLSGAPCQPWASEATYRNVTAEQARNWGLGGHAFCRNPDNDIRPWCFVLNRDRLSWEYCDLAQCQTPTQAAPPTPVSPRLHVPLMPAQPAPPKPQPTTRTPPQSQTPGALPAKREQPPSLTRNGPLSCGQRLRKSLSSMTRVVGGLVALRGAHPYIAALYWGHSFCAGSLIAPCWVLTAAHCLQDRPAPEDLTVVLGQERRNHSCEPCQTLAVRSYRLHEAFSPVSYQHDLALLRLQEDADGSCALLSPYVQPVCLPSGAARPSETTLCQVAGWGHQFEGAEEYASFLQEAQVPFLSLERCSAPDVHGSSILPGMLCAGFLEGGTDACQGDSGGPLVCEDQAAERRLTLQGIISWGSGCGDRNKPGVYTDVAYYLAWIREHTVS

[15] = target: T3, Kallikrein-1; assay: Inhibition of human KLK1
[16] = target: T4, Coagulation factor XI; assay: Inhibition of human fXIa
[17] = target: Urokinase-type plasminogen activator (Homo sapiens, UniProt P00749); assay: Inhibition of Urokinase (unknown origin)
[18] = target: T6, Trypsin; assay: Inhibition of trypsin (unknown origin); assay type: protein assay
[19] = target: T4, Coagulation factor XI; assay: Inhibition of human fXIa incubated for 1 hrs
[20] = target: Coagulation factor X (Homo sapiens, UniProt P00742); assay: Inhibition of fXa (unknown origin)
[21] = target: T7, Coagulation factor XII; assay: Inhibition of fXIIa (unknown origin)
[22] = target: T5, Prothrombin; assay: Inhibition of thrombin (unknown origin)
[23] = target: T4, Coagulation factor XI; assay: Inhibition of human fXIa using Boc-FSR-AMC as substrate assessed as inhibition constant by fluorescence plate reader analysis
[24] = target: T2, Plasminogen; assay: Inhibition of human plasmin using H-d-VLK-AM as substrate assessed as inhibition constant by fluorescence plate reader analysis
[25] = target: Plasma kallikrein (Rattus norvegicus, UniProt P14272); assay: Inhibition of rat recombinant plasma kallikrein using Z-FR-AMC as substrate assessed as inhibition constant by fluorescence plate reader analysis
[26] = target: T5, Prothrombin; assay: Inhibition of human thrombin using Z-GGR-AMC as substrate assessed as inhibition constant by fluorescence plate reader analysis
[27] = target: T7, Coagulation factor XII; assay: Inhibition of human fXIIa using Z-GGR-AMC as substrate assessed as inhibition constant by fluorescence plate reader analysis
[28] = target: T7, Coagulation factor XII; assay: Inhibition of human fXIIa incubated for 1 hrs
[29] = target: T5, Prothrombin; assay: Inhibition of human thrombin by fluorescence based analysis
[30] = target: T2, Plasminogen; assay: Inhibition of human plasmin by fluorescence based analysis

T2 sequence (P00747 97-580 limits assumed): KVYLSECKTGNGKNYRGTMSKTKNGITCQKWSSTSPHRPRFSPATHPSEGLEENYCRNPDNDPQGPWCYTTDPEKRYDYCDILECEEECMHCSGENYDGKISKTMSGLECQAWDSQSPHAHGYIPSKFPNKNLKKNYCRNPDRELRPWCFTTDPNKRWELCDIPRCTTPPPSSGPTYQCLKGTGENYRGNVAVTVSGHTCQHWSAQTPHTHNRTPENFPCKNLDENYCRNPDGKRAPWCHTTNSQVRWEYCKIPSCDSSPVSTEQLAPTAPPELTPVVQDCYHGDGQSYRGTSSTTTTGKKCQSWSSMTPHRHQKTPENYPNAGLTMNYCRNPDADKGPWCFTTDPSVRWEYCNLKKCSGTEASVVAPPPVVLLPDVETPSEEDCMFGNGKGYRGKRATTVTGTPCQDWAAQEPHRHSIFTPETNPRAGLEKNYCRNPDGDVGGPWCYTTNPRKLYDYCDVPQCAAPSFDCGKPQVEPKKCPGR
T2 sequence (P00747 581-810 limits assumed): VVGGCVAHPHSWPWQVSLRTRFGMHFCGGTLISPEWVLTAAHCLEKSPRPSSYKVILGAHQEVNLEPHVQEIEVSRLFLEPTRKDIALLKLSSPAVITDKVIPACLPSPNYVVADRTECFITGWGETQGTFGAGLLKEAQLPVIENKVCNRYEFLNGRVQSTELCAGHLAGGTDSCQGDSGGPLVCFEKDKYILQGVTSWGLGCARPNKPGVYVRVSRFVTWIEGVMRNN
T4 sequence (P03951 19-387 limits assumed): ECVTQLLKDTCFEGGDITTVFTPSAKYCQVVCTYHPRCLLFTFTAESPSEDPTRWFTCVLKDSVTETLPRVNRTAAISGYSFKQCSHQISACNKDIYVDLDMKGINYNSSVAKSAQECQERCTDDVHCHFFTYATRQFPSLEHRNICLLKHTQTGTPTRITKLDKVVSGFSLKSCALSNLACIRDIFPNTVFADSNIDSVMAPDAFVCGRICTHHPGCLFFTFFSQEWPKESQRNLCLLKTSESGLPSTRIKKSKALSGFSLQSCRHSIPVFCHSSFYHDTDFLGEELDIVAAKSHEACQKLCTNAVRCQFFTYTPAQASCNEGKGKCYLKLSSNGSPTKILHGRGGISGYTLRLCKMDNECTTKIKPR
T4 sequence (P03951 388-625 limits assumed): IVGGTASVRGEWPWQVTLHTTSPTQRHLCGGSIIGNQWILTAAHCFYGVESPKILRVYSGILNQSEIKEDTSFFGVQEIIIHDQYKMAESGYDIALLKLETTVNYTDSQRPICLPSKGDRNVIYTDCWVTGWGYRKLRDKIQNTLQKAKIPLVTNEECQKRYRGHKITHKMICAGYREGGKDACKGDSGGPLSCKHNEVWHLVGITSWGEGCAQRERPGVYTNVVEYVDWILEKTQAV
T1 sequence (P03952 20-390 limits assumed): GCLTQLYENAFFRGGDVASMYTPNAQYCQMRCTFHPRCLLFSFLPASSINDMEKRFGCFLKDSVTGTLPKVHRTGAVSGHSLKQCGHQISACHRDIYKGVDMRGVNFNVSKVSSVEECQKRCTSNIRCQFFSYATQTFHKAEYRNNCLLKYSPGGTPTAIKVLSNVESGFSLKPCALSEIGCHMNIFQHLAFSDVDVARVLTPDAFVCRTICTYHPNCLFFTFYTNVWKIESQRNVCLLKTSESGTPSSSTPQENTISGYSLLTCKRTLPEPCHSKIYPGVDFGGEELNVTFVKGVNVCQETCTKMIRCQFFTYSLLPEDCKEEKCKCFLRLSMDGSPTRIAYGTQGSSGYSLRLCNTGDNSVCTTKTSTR
T1 sequence (P03952 391-638 limits assumed): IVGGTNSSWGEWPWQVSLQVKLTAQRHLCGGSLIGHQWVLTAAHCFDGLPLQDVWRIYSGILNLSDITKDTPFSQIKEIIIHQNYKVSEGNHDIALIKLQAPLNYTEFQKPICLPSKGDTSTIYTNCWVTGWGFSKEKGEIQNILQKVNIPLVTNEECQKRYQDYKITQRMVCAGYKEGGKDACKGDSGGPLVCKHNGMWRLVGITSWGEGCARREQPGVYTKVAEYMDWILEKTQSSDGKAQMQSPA
T3 sequence (P06870 whole entry): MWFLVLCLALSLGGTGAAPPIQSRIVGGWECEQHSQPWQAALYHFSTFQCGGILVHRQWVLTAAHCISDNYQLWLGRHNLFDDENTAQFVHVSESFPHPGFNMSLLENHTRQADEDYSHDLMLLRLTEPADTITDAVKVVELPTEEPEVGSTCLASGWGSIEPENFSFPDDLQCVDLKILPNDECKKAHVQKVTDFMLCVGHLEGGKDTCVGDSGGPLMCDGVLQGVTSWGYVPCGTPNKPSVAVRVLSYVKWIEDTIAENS
Coagulation factor X, sequence (P00742 41-179 limits assumed): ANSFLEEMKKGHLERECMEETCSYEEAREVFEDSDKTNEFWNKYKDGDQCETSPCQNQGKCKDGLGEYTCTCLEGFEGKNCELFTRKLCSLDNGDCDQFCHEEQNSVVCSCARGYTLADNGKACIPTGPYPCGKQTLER
Coagulation factor X, sequence (P00742 235-488 limits assumed): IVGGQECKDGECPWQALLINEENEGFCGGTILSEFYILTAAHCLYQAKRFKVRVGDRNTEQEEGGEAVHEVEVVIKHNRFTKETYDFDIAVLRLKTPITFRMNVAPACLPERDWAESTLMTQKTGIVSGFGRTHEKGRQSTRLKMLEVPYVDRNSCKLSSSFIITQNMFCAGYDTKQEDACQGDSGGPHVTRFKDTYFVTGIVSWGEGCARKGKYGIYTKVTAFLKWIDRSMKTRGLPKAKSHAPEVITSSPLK
Plasma kallikrein (Rattus norvegicus, UniProt P14272), sequence (P14272 20-390 limits assumed): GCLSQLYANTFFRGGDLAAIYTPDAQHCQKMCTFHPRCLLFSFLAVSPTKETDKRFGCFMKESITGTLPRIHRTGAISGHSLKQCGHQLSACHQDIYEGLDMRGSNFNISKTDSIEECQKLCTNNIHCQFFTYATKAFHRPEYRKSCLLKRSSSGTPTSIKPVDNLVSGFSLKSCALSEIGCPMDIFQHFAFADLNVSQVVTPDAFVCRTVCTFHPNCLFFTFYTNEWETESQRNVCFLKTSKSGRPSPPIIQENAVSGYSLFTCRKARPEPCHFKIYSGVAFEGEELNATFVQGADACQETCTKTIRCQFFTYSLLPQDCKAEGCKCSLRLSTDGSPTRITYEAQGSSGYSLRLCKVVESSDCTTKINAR
Plasma kallikrein (Rattus norvegicus, UniProt P14272), sequence (P14272 391-638 limits assumed): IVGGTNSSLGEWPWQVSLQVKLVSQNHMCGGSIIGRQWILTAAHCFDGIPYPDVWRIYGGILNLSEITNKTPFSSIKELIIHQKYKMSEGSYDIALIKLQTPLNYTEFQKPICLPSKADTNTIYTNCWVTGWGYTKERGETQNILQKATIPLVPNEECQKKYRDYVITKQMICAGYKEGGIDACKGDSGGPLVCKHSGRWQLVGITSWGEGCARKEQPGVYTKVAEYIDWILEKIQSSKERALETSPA

SMILES: COCc1nn(Cc2ccc(Cn3cc(C)cn3)cc2)cc1C(=O)NCc1cnc2[nH]cc(Cl)c2c1
pIC50 [2]: 8.06

SMILES: CS(=O)(=O)c1cc(Cc2cc(C(=O)NCc3cnc4[nH]cc(Cl)c4c3)ccn2)ccc1Cn1ccccc1=O
pIC50 [3]: > 7.00

SMILES: Cc1nc(N)ccc1CNC(=O)c1ccnc(Cc2ccc(Cn3ccccc3=O)c(S(C)(=O)=O)c2)c1
pIC50 [3]: > 7.00

SMILES: Cc1cnn(Cc2ccc(Cn3cc(C(=O)NCc4cnc5[nH]cc(Cl)c5c4)c(C#N)n3)cc2)c1
pIC50 [6]: 9.00

SMILES: Clc1cnc2ccc(Cc3nc4ncnc(NCc5n[nH]c6ccc(Cl)cc56)c4[nH]3)cc2c1
pIC50 [3]: > 7.00

SMILES: CCOc1ccc(C[C@@H](NC(=O)c2ccccc2)C(=O)N[C@H](C(=O)NCc2ccc(CN)cc2)[C@H](O)c2ccccc2)cc1
pIC50 [2]: 7.70
pIC50 [7]: 5.14

SMILES: Fc1cc2[nH]cc(Cl)c2cc1CNc1ncnc2nc(Cc3ccc4ncc(Cl)cc4c3)[nH]c12
pIC50 [3]: > 7.00

SMILES: Fc1c(CNc2ncnc3nc(Cc4ccc5ncc(Cl)cc5c4)[nH]c23)ccc2[nH]cc(Cl)c12
pIC50 [3]: > 7.00

SMILES: Cc1cc(C)n(Cc2ccc(Cn3cc(C(=O)NCc4c(C)cc(N)nc4C)nn3)cc2)n1
pIC50 [15]: < 4.40
pIC50 [5]: 8.54
pIC50 [16]: < 5.00

SMILES: Fc1cc2[nH]cc(Cl)c2cc1CNc1ncnc2nc(Cc3ccc4ncc(C(F)(F)F)cc4c3)[nH]c12
pIC50 [3]: > 7.00

SMILES: CCOc1ccc(C[C@@H](NC(=O)c2sccc2C)C(=O)N[C@@H](Cc2ccccc2)C(=O)NCc2ccc(CN)cc2)cc1
pIC50 [2]: 8.00

SMILES: Cc1cc(N)nc(C)c1CNC(=O)c1cnn(Cc2ccc(Cn3cccn3)cc2)c1
pIC50 [19]: 3.97
pIC50 [6]: 8.62

SMILES: CC(N)C(=O)NC1CSCc2cc3cc(c2)CSCC(C(=O)NC(C)C(N)=O)NC(=O)C(CCCNC(=N)N)NC(=O)C(C(C)C)NC(=O)C(CC(N)=O)NC(=O)C(CSC3)NC(=O)C(C)NC(=O)C(CCCCN)NC(=O)C(Cc2ccccc2)NC1=O (stereo not given) (H-ACFKACNVRCA-NH2; linker 2-6-10 via TBMB; configuration not given here)
pKi [23]: < 4.30
pKi [24]: 8.28
pKi [25]: 7.57
pIC50 [26]: < 4.30
pKi [27]: < 4.30

SMILES: Cc1nc(N)cc2c1CNC(=O)c1cnn(c1)Cc1ccc(Cn3cccn3)cc1OCCC/C=C\CCO2
pIC50 [28]: 5.44
pIC50 [6]: 8.70

SMILES: CC(C)COC(=O)c1ccc(NC(=O)[C@H](CCCNC(=N)N)NC(=O)C2CCC(CN)CC2)cc1 (stereo not given in full)
pIC50 [4]: 3.43
pIC50 [5]: 4.82

SMILES: COCc1nn(Cc2ccc(Cn3cc(F)ccc3=O)cc2)cc1C(=O)NCc1nccc(OC)c1F
pIC50 [4]: < 4.40
pIC50 [8]: < 4.40
IC50 [18]: > 40 µM
pIC50 [22]: < 4.40

SMILES: Cc1cc(N)nc(C)c1CNc1ncnc2nc(Cc3ccc4ncc(C(F)(F)F)cc4c3)[nH]c12
pIC50 [3]: > 7.00

SMILES: Cc1cc(N)nc(C)c1CNC(=O)c1cncc(Cc2ccc3ncc(Cl)cc3c2)c1
pIC50 [3]: > 7.00

SMILES: CCOc1ccc(C[C@@H](NC(=O)c2ccccc2)C(=O)N[C@@H](Cc2ccccc2)C(=O)NCc2ccc(CN)cc2)cc1
pIC50 [4]: 7.66
pIC50 [29]: < 5.00
pIC50 [21]: < 4.30
pIC50 [22]: < 5.00
pIC50 [30]: < 5.00

Continued, values first:

pIC50 [1]: > 7.30
SMILES: NC(CCC1CC1)(c1ccc(F)c(NC(=O)[C@H]2CC(F)(F)CN2C(=O)Nc2ccc(Cl)cn2)c1)c1ccccn1 (stereo not given in full)

pIC50 [1]: 7.00
SMILES: N=C(N)c1cccc(-n2nc(C(F)(F)F)cc2C(=O)Nc2cc(C(NCC3CC3)c3ccccc3)ccc2F)c1 (stereo not given)

pIC50 [1]: 7.00
SMILES: NCc1cccc(-n2nc(C(F)(F)F)cc2C(=O)Nc2cc(C(OCC3CC3)c3ccccc3O)ccc2F)c1 (stereo not given)

pIC50 [4]: 4.38
pIC50 [5]: 5.70
SMILES: CC(=O)c1ccc(NC(=O)C(CCCNC(=N)NS(=O)(=O)c2c(C)cc(C)cc2C)NC(=O)C2CCC(CN)CC2)cc1 (stereo not given)

pIC50 [4]: < 3.30
pIC50 [5]: 4.30
SMILES: COC(=O)c1ccc(NC(=O)[C@H](CCCCN)NC(=O)C2CCC(CN)CC2)cc1 (stereo not given in full)

pIC50 [1]: > 7.30
SMILES: NC(CCC1CC1)(c1ccc(F)c(NC(=O)[C@H]2C[C@](O)(c3ccccc3)CN2C(=O)Nc2ccc(Cl)cc2)c1)c1ccccn1 (stereo not given in full)

pIC50 [1]: > 7.30
SMILES: CO[C@@H]1C[C@H](C(=O)Nc2cc(C(N)(CCC3CC3)c3ccccn3)ccc2F)N(C(=O)Nc2ccc(Cl)cc2)C1 (stereo not given in full)

pIC50 [1]: 7.00
SMILES: Nc1nccc2ccc(-n3nc(C(F)(F)F)cc3C(=O)Nc3cc(C(NCC4CC4)c4ccccc4)ccc3F)cc12 (stereo not given)

pIC50 [1]: 7.00
pKi [1]: 10.00
SMILES: NCc1cccc(-n2nc(C(F)(F)F)cc2C(=O)Nc2cccc(C(OCC3CC3)c3ccccc3)c2)c1 (stereo not given)

pIC50 [1]: 7.00
pKi [1]: 10.00
SMILES: NCc1cccc(-n2nc(C(N)=O)cc2C(=O)Nc2cc(C(NCC3CC3)c3ccccc3)ccc2F)c1 (stereo not given)

pIC50 [1]: > 7.30
SMILES: CO[C@@H]1C[C@H](C(=O)Nc2cc(C(N)(CCC3CC3)c3cccc(C#N)c3)ccc2F)N(C(=O)Nc2ccc(Cl)cn2)C1 (stereo not given in full)

pIC50 [8]: 8.54
pIC50 [9]: 8.54
SMILES: Nc1nn(Cc2ccc(Cn3ccccc3=O)cc2)cc1C(=O)NCCOc1cccc(Cl)c1

pIC50 [5]: 4.85
SMILES: N=C(N)NCCCC[C@H](NC(=O)C1CCC(CN)CC1)C(=O)Nc1ccc(C(=O)O)cc1 (stereo not given in full)

pIC50 [10]: < 4.40
pIC50 [11]: < 4.40
pIC50 [8]: < 5.40
IC50 [12]: > 40 µM
pIC50 [13]: < 4.40
pIC50 [14]: < 5.40
SMILES: COc1ccnc(CNC(=O)c2cn(Cc3ccc(Cn4ccccc4=O)cc3)nc2C(F)(F)F)c1F

pIC50 [1]: > 7.30
SMILES: NC(CCC1CC1)(c1ccc(F)c(NC(=O)[C@H]2C[C@@H](O)CN2C(=O)Nc2ccc(Cl)cc2)c1)c1ccccn1 (stereo not given in full)

pIC50 [4]: 4.68
pIC50 [5]: 6.07
pIC50 [17]: 4.24
SMILES: CC(=O)c1ccc(NC(=O)[C@H](Cc2ccccc2)NC(=O)C2CCC(CN)CC2)cc1 (stereo not given in full)

pIC50 [1]: < 4.30
SMILES: NCc1cccc(-n2nc(C(F)(F)F)cc2C(=O)Nc2cccc(C(O)c3ccccc3)c2)c1 (stereo not given)

pIC50 [2]: 9.25
SMILES: COCc1nn(Cc2ccc(Cn3cccn3)cc2)cc1C(=O)NCc1ccc2c(N)nccc2c1C

pIC50 [1]: > 7.30
SMILES: CCO[C@@H]1C[C@H](C(=O)Nc2cc(C(N)(CCC3CC3)c3ccccn3)ccc2F)N(C(=O)Nc2ccc(Cl)cc2)C1 (stereo not given in full)

pIC50 [4]: 3.21
pIC50 [5]: 5.89
pIC50 [17]: 3.46
IC50 [18]: 12 µM
SMILES: NCC1CCC(C(=O)N[C@@H](Cc2ccccc2)C(=O)Nc2ccc(CC(=O)O)cc2)CC1 (stereo not given in full)

pIC50 [5]: 8.32
SMILES: Nc1nn(Cc2ccc(Cn3ccccc3=O)cc2)cc1C(=O)N[C@H]1CCN(c2cccc(Cl)c2)C1

pIC50 [20]: < 5.00
pIC50 [5]: 7.05
pIC50 [21]: < 5.00
pIC50 [9]: < 5.00
pIC50 [22]: < 5.00
SMILES: N=C(N)c1ccc(CNC(=O)c2cnn(Cc3ccccc3)c2)cc1

pIC50 [1]: < 4.30
SMILES: CCCOC(c1ccccc1)c1cccc(NC(=O)c2cc(C(F)(F)F)nn2-c2cccc(CN)c2)c1 (stereo not given)

pIC50 [1]: > 7.30
SMILES: CO[C@@H]1C[C@H](C(=O)Nc2cc(C(N)(CCC3CC3)c3ccccn3)ccc2F)N(C(=O)Nc2ccc(Cl)cn2)C1 (stereo not given in full)

pIC50 [5]: 4.74
SMILES: COC(=O)c1ccc(NC(=O)[C@H](CCCCNC(=N)N)NC(=O)C2CCC(CN)CC2)cc1 (stereo not given in full)
